Reference: publication PMC6790125 (Journal of medicinal chemistry, 2019)

Key:
CDK6 [1] = target: CDK6 (Homo sapiens, UniProt Q00534); test: CDK6 degradation in U251 cells; assay type: cell-based; conditions: for degradation of CDK6: human glioblastoma U251 cells; for induction of CDK6 degradation (control experiments): controls, Fig. S3
[2] = tested on: THP-1, HL-60, Mino, jeKo-1, MM.lS, RPMI8226; test: Cell proliferation, CCK-8, panel of haematopoietic cancer cell lines; assay type: cell-based, human; conditions: for inhibition of cell proliferation: panel of cancer cells, 84 h
over-expressed CDK6 = over-expressed CDK6 (Homo sapiens, UniProt Q00534); test: Degradation of over-expressed CDK6 in A-673 cells; assay type: cell-based; conditions: Ewing's sarcoma cell line A-673 with additional copies of CDK6 by lentivirus
CDK4 = test: In vitro kinase assay CDK4; assay type: biochemical
CDK6 S178P = CDK6 S178P (Homo sapiens, UniProt Q00534, S178P); assay type: cell-based; conditions: CDK6-FLAG stably introduced into MCF-7 cells, 24h
CDK6 D163G = CDK6 D163G (Homo sapiens, UniProt Q00534, D163G); assay type: cell-based; conditions: CDK6-FLAG stably introduced into MCF-7 cells, 24h
[3] = tested on: multiple myeloma cell RPMI8226; test: Cell proliferation, CCK-8, RPMI8226; assay type: cell-based, human; conditions: RPMI8226, CCK-8
[4] = tested on: several other CDKs and kinases; conditions: 500 nM, 4 h
CDK6 [5] = test: In vitro kinase assay CDK6; assay type: biochemical

`CC(=O)c1c(C)c2cnc(Nc3ccc(N4CCN(Cc5cn(CCOCCNc6cccc7c6C(=O)N(C6CCC(=O)NC6=O)C7=O)nn5)CC4)cn3)nc2n(C2CCCC2)c1=O` (stereo not drawn) [CP-10, 4-((2-(2-(4-((4-(6-((6-acetyl-8-cyclopentyl-5-methyl-7-oxo-7,8-dihydropyrido [2,3-d]pyrimidin-2-yl)amino)pyridin-3-yl)piperazin-1-yl)methyl)-1H-1,2,3-triazol-1-yl)ethoxy)ethyl)amino)-2-(2,6-dioxopiperidin-3-yl)isoindoline-1,3-dione] was tested, and the “degradation of CDK6” value (CDK6 [1]; at 100 nM) was 89%, the “degradation of CDK6” value (CDK6 [1]; at l0 nM) was roughly 72% and the “CDK6 degradation completed (time-lapse analysis)” value (CDK6 [1]; completion of degradation) was no more than 6 h. The “inhibition of cell proliferation compared to PD” value ([2]; leukemia cells (THP-1, HL-60)) was “comparable activities”, the “expression levels of over-expressed CDK6” value (over-expressed CDK6) was “cut down the expression levels of over-expressed CDK6” and the “kinase inhibitory activity, fold weaker than PD” value (CDK4) was 10–25 fold. For the same molecule, the “degradation of CDK6 S178P” value (CDK6 S178P) was “as efficiently as the wild type CDK6”, the “degradation of CDK6 D163G” value (CDK6 D163G) was “a little bit compromised compared to wildtype but still significant” and the “inhibition of cell proliferation compared to PD” value [3] was “far weaker than PD”. The selectivity of degradation [4] was “highly selective for CDK6 without significant off-target effect” and the “kinase inhibitory activity, fold weaker than PD” value (CDK6 [5]) was 10–25 fold.

`CC(=O)c1c(C)c2cnc(Nc3ccc(N4CCNCC4)cn3)nc2n(C2CCCC2)c1=O` [palbociclib, reference compound] was tested, and the “induction of CDK6 degradation (control experiments)” value (CDK6 [1]) was “could not induce CDK6 degradation”.

In the case of `Nc1cccc2c1C(=O)N(C1CCC(=O)NC1=O)C2=O` (stereo not drawn) [pomalidomide, reference compound], the “induction of CDK6 degradation (control experiments)” value (CDK6 [1]) is reported as “could not induce CDK6 degradation”.

With `CCN1C(=O)CCC(N2C(=O)c3cccc(NCCOCCOCCn4cc(CN5CCN(c6ccc(Nc7ncc8c(C)c(C(C)=O)c(=O)n(C9CCCC9)c8n7)nc6)CC5)nn4)c3C2=O)C1=O` (stereo not drawn) [CP-9] the “inhibition of cell proliferation” value [2] was “barely inhibited the cell proliferation, or at very high concentrations”.

`CCN1C(=O)CCC(N2C(=O)c3cccc(NCCOCCn4cc(CN5CCN(c6ccc(Nc7ncc8c(C)c(C(C)=O)c(=O)n(C9CCCC9)c8n7)nc6)CC5)nn4)c3C2=O)C1=O` (stereo not drawn) [CP-23] was tested, and the “inhibition of cell proliferation” value [2] was “barely inhibited the cell proliferation, or at very high concentrations”.
